Measurements from patent US8614327B2 (Vertex Pharmaceuticals Incorporated, priority 2004, dated 2013).

Molecular target: T1, ΔF508-CFTR (Homo sapiens, UniProt P13569, DEL508-508)
T1 construct: expressed in transfected cells
Experiment: Membrane potential optical (FRET/VIPR) assay, identification of potentiator compounds
Type: cell-based
Conditions: Table 3, assay not given; for % Activity: relative efficacy
Method in brief: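 Double-addition potentiator screen: compound delivered in gluconate-substituted Cl^--free medium, membrane potential followed via CC2-DMPE/DiSBAC2(3) FRET on VIPR. Cells were ΔF508-CFTR-expressing NIH3T3 mouse fibroblasts, held 2 h at 37° C. then 24 h at 27° C. before assay.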

T1 sequence (P13569 with tags, fused parts or gaps DEL508-508): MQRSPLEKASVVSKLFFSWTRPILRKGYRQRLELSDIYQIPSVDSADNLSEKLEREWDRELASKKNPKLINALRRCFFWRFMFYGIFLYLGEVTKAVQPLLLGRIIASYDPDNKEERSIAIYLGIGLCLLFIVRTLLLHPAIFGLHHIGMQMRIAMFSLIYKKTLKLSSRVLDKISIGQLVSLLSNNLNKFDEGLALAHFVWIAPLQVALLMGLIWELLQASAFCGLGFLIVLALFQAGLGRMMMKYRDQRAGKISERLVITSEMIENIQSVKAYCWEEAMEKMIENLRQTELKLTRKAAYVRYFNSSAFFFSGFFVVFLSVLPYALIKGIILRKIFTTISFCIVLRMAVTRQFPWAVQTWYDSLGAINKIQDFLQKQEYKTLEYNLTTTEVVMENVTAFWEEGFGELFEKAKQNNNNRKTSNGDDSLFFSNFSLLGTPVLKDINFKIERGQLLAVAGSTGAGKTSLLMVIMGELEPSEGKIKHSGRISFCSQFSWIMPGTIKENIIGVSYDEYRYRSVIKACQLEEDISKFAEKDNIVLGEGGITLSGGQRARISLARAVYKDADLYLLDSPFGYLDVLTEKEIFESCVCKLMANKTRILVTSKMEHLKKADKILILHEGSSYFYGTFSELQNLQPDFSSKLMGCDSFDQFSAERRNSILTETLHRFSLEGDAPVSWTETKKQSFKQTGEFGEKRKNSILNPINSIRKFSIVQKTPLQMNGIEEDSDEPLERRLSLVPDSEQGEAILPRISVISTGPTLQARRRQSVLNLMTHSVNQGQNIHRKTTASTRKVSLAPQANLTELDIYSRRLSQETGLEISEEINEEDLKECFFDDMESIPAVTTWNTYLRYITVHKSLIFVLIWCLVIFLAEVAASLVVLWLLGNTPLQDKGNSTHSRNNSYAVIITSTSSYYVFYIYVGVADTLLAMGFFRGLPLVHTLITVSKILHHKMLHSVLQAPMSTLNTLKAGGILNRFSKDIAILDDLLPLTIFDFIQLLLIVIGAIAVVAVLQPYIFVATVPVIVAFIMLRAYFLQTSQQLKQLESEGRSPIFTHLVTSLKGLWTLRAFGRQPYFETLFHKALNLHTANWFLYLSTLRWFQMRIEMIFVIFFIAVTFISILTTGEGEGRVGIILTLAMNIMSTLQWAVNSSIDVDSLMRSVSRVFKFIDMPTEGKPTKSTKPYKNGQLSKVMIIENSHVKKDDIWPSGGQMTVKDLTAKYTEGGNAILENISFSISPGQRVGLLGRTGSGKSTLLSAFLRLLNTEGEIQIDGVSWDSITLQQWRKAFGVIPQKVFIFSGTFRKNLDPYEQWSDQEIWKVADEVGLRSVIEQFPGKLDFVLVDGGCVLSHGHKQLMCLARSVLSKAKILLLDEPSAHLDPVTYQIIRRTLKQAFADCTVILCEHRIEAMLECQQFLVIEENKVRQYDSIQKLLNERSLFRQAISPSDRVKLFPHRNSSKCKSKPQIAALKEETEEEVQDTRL

SMILES | EC50 [µM] | % Activity
CC(C)(C)C(=O)Nc1ccc(NC(=O)c2c[nH]c3ccccc3c2=O)c(C(F)(F)F)c1 [Compound 556, N-[4-(2,2-dimethylpropanoylamino)-2-(trifluoromethyl)phenyl]-4-oxo-1H-quinoline-3-carboxamide] | < 10 | ++ (between 25% to 100%)
CC(C)c1ccc(NC(=O)c2c[nH]c3ccc(F)cc3c2=O)c(C(F)(F)F)c1 [Compound 557, 6-fluoro-N-[4-isopropyl-2-(trifluoromethyl)phenyl]-4-oxo-1H-quinoline-3-carboxamide] | < 10 | ++ (between 25% to 100%)
CC(C)(C)c1cc2cc[nH]c2cc1NC(=O)c1c[nH]c2cc(C#N)ccc2c1=O [Compound 558, 7-cyano-4-oxo-N-(5-tert-butyl-1H-indol-6-yl)-1H-quinoline-3-carboxamide] | < 10 | ++ (between 25% to 100%)
CC(C)(C)c1cc2cc[nH]c2cc1NC(=O)c1c[nH]c2c(C(F)(F)F)cccc2c1=O [Compound 559, 4-oxo-N-(5-tert-butyl-1H-indol-6-yl)-8-(trifluoromethyl)-1H-quinoline-3-carboxamide] | 10 to 25 | + (<25%)
COc1cc(NC(=O)c2c[nH]c3ccccc3c2=O)ccc1-n1c(C)ccc1C [Compound 560, N-[4-(2,5-dimethylpyrrol-1-yl)-3-methoxy-phenyl]-4-oxo-1H-quinoline-3-carboxamide] | < 10 | ++ (between 25% to 100%)
CC(C)(C)c1cc(F)c(NC(=O)c2c[nH]c3ccc(Cl)cc3c2=O)cc1O [Compound 561, 6-chloro-N-(2-fluoro-5-hydroxy-4-tert-butyl-phenyl)-4-oxo-1H-quinoline-3-carboxamide] | < 10 | ++ (between 25% to 100%)
O=C(Nc1ccc(N2CCCC2)cc1C(F)(F)F)c1c[nH]c2ccc(F)cc2c1=O [Compound 562, 6-fluoro-4-oxo-N-[4-pyrrolidin-1-yl-2-(trifluoromethyl)phenyl]-1H-quinoline-3-carboxamide] | < 10 | ++ (between 25% to 100%)
O=C(Nc1cc(O)cc(C(F)(F)F)c1)c1c[nH]c2ccccc2c1=O [Compound 563, N-[3-hydroxy-5-(trifluoromethyl)phenyl]-4-oxo-1H-quinoline-3-carboxamide] | < 10 | ++ (between 25% to 100%)
O=C(Nc1ccc(C2CCCCC2)c(O)c1)c1c[nH]c2ccccc2c1=O [Compound 564, N-(4-cyclohexyl-3-hydroxy-phenyl)-4-oxo-1H-quinoline-3-carboxamide] | < 10 | ++ (between 25% to 100%)
Cc1cccc2[nH]cc(C(=O)Nc3cc4[nH]ccc4cc3C(C)(C)C)c(=O)c12 [Compound 565, 5-methyl-4-oxo-N-(5-tert-butyl-1H-indol-6-yl)-1H-quinoline-3-carboxamide] | < 10 | ++ (between 25% to 100%)
COCCn1ccc2cc(C(F)(F)F)c(NC(=O)c3c[nH]c4ccc(F)cc4c3=O)cc21 [Compound 566, 6-fluoro-N-[1-(2-methoxyethyl)-5-(trifluoromethyl)indol-6-yl]-4-oxo-1H-quinoline-3-carboxamide] | < 10 | ++ (between 25% to 100%)
O=C(Nc1ccc(N2CCC[C@H]2C(=O)O)cc1C(F)(F)F)c1c[nH]c2ccccc2c1=O [Compound 567, (S)-1-[4-[(4-oxo-1H-quinolin-3-yl)carbonylamino]-3-(trifluoromethyl)phenyl]pyrrolidine-2-carboxylic acid] | < 10 | ++ (between 25% to 100%)
Cc1ccc2[nH]cc(C(=O)Nc3ccc(N4[C@H](C)CC[C@H]4C)cc3C(F)(F)F)c(=O)c2c1 [Compound 569, N-(4-((2R,5R)-2,5-dimethylpyrrolidin-1-yl)-2-(trifluoromethyl)phenyl)-6-methyl-4-oxo-1,4-dihydroquinoline-3-carboxamide] | < 10 | ++ (between 25% to 100%)
CC(C)c1cc(C(F)(F)F)c(NC(=O)c2c[nH]c3ccccc3c2=O)cc1OCc1ccccc1 [Compound 570, N-[5-benzyloxy-4-isopropyl-2-(trifluoromethyl)phenyl]-4-oxo-1H-quinoline-3-carboxamide] | < 10 | ++ (between 25% to 100%)
COc1nc(NC(=O)c2c[nH]c3ccccc3c2=O)ccc1C(F)(F)F [Compound 571, N-[6-methoxy-5-(trifluoromethyl)-2-pyridyl]-4-oxo-1H-quinoline-3-carboxamide] | < 10 | + (<25%)
C[C@@H]1CCCN1c1ccc(NC(=O)c2c[nH]c3ccccc3c2=O)c(C(F)(F)F)c1 [Compound 572, (R)-N-(4-(2-methylpyrrolidin-1-yl)-2-(trifluoromethyl)phenyl)-4-oxo-1,4-dihydroquinoline-3-carboxamide] | – | ++ (between 25% to 100%)
CC(C)c1ccc(NC(=O)c2c[nH]c3c(F)cccc3c2=O)c(C(F)(F)F)c1 [Compound 573, 8-fluoro-N-[4-isopropyl-2-(trifluoromethyl)phenyl]-4-oxo-1H-quinoline-3-carboxamide] | < 10 | ++ (between 25% to 100%)
O=C(Nc1cc(O)cc(C(F)(F)F)c1)c1c[nH]c2ccc(F)cc2c1=O [Compound 574, 6-fluoro-N-[3-hydroxy-5-(trifluoromethyl)phenyl]-4-oxo-1H-quinoline-3-carboxamide] | < 10 | ++ (between 25% to 100%)
CC(C)c1ccc(NC(=O)c2c[nH]c3ccccc3c2=O)cc1O [Compound 575, N-(3-hydroxy-4-isopropyl-phenyl)-4-oxo-1H-quinoline-3-carboxamide] | < 10 | ++ (between 25% to 100%)
Cc1ccc2c(=O)c(C(=O)Nc3cc4[nH]ccc4cc3C(F)(F)F)c[nH]c2c1 [Compound 576, 7-methyl-4-oxo-N-[5-(trifluoromethyl)-1H-indol-6-yl]-1H-quinoline-3-carboxamide] | < 10 | ++ (between 25% to 100%)
Cc1ccc(C(F)(F)F)cc1NC(=O)c1c[nH]c2ccccc2c1=O [Compound 577, N-[2-methyl-5-(trifluoromethyl)phenyl]-4-oxo-1H-quinoline-3-carboxamide] | < 10 | ++ (between 25% to 100%)
Cc1cccc2[nH]cc(C(=O)Nc3ccc(N4CCC(C)(C)C4)cc3C(F)(F)F)c(=O)c12 [Compound 578, N-[4-(3,3-dimethylpyrrolidin-1-yl)-2-(trifluoromethyl)phenyl]-5-methyl-4-oxo-1H-quinoline-3-carboxamide] | < 10 | ++ (between 25% to 100%)
